Data from ChEMBL document CHEMBL1201862, “PubChem BioAssay data set” (2004).
Activity calls are given as the source filed them. Cut-off read from the data, not from the text of the source, for most assays here: actives have a measured EC50 and inactives only a lower limit.

Tests used:
[1] = target: T1, Heat shock factor protein 1 (Mus musculus, UniProt P38532); test: inhibition of MG132-induced HSE-luciferase signal, confirmation, cell-based, NIH3T3, luminescence, dose retest (AID 2382); type: functional;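 note: NIH3T3 fibroblasts with HSF1-driven luciferase reporter stressed by proteasome inhibitor MG132; luminescence from HSF1-driven luciferase expression after 8 hours of MG132 stress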
T1 sequence (P38532 whole entry): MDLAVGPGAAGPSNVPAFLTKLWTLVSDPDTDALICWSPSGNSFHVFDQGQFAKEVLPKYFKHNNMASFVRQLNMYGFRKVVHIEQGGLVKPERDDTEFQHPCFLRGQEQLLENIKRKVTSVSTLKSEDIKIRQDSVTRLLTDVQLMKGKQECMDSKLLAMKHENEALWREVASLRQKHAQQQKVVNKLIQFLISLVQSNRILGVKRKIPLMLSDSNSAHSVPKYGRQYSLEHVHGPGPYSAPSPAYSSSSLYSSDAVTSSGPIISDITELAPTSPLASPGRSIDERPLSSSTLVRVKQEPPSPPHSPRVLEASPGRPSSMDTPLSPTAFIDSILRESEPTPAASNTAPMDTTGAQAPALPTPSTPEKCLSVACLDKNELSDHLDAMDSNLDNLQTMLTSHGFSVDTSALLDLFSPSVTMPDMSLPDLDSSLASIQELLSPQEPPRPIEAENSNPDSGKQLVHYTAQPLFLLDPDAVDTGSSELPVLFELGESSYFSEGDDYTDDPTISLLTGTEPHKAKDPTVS

[2] = system: Streptococcus sp. 'group A'; test: growth inhibition of control SK(-) GAS strain, dose response, counter-screen for streptokinase expression inhibitor project, luminescence, kanamycin, BacTiterGlo, confirmation (AID 1900); type: functional, organism-based
Streptokinase A = target: T2, Streptokinase A (Streptococcus pyogenes serotype M1, UniProt P10520); test: S. pyogenes streptokinase expression inhibitors, potency, dose response, plasminogen activation absorbance, OD405 (AID 1914); type: functional, Streptococcus pyogenes M1 GAS;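 note: secreted streptokinase activity via plasminogen activation per viability signal from cell pellet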
T2 sequence (P10520 whole entry): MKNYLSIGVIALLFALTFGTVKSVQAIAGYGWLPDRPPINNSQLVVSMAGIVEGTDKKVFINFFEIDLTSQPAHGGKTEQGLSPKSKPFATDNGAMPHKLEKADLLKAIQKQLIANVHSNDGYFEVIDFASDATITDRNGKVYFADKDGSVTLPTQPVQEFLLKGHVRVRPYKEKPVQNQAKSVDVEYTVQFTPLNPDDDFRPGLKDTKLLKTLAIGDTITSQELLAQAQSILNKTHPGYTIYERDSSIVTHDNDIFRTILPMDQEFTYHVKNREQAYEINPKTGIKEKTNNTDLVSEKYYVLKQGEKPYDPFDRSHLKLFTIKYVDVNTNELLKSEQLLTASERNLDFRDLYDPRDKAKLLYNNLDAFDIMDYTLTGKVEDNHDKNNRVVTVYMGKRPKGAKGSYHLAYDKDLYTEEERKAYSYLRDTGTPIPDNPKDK

Streptococcus = test: Group A Streptococcus viability loss, dose response, counter-screen for streptokinase expression inhibitor project, luminescence, BacTiterGlo (AID 1915); type: functional, organism-based;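 note: potency for reduction of bacterial viability or growth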
[3] = Vero cell cytotoxicity, dose response, cytotoxicity control for Vif-APOBEC3G degradation inhibitor project, Vero cells (AID 1117358); type: functional; settings: Human immunodeficiency virus 1, Vero
[4] = inhibitors of Vif binding to APOBEC3G peptide, primary screen, biochemical, TR-FRET, GST-Vif 1-94, biotin-A3G peptide, dose response retest (AID 1117319); type: functional;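 note: TR-FRET signal of purified GST-Vif binding a biotinylated A3G peptide; inhibitors lower the FRET signal by blocking Vif and A3G binding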
[5] = target: T3, Tyrosine-protein phosphatase non-receptor type 7 (Homo sapiens, UniProt P35236); test: inhibitors of human HePTP phosphatase, […], biochemical, absorbance, leukemia target (AID 521); type: functional
T3 sequence (P35236 whole entry): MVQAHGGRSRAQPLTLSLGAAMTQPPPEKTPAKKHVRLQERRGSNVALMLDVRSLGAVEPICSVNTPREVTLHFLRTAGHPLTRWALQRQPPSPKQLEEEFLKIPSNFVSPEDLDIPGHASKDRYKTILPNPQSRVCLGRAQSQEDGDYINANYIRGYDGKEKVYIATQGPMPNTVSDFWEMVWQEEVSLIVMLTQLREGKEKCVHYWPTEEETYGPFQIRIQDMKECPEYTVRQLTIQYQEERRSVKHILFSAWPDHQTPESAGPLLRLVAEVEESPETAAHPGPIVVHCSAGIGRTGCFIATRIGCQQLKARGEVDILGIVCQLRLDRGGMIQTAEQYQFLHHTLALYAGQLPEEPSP

BJ [6] = test: cytotoxicity toward BJ-TERT fibroblasts, dose response, cell-based, RAS-independent, luminescence (AID 1933); type: functional; settings: Homo sapiens
[7] = target: Glutathione-S-transferase (Schistosoma japonicum, UniProt Q26513); test: biotin-GST/anti-GST TR-FRET signal inhibitors, dose response, artefact control for Vif-APOBEC3G degradation inhibitor project, biochemical (AID 1117362); type: functional
Glutathione-S-transferase, sequence (Q26513 whole entry): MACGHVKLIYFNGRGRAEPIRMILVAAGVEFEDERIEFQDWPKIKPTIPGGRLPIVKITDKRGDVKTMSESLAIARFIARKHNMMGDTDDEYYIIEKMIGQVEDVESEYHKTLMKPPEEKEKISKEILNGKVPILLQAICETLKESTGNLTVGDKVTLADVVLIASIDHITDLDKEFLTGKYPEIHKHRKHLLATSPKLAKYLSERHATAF

BJ [8] = test: cytotoxicity toward BJ-TERT-LT-ST fibroblasts, dose response, cell-based, RAS-independent, luminescence (AID 1935); type: functional; settings: Homo sapiens;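 note: BJ fibroblasts immortalized with TERT plus LT and ST oncogenes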
Genome polyprotein = Genome polyprotein (dengue virus type 2, UniProt P29990); test: Dengue-2 NS5 methyltransferase inhibitors, primary screen, biochemical, confirmation dose response (AID 588689); type: functional
Genome polyprotein, sequence (P29990 2492-3391 limits assumed): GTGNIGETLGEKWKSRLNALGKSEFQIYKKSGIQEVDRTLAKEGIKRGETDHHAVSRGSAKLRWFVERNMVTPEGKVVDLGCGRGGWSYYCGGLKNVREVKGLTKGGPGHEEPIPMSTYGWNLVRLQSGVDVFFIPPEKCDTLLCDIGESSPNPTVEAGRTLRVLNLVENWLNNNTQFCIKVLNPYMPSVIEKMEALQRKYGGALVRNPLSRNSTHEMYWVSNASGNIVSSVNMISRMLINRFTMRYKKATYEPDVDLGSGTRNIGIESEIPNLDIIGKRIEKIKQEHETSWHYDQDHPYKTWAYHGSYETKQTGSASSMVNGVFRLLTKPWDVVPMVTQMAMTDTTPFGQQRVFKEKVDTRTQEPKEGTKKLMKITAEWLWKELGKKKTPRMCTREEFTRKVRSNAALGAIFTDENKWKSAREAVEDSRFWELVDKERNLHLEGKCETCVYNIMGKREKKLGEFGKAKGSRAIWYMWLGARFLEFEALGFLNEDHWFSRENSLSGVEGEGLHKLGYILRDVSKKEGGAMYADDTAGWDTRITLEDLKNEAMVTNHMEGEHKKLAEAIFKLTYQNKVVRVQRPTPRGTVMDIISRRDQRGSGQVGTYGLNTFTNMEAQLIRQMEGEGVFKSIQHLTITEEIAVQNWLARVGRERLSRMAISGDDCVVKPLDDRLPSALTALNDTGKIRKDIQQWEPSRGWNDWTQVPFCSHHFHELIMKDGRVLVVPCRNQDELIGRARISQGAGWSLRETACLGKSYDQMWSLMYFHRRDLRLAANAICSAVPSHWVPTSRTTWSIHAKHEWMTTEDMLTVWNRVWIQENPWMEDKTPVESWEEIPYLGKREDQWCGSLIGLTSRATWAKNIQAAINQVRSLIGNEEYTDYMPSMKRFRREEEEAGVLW

[9] = target: T4, Replicative DNA helicase DnaB (Mycobacterium tuberculosis, UniProt P9WMR3); test: DnaB intein splicing inhibitors, dose response, biochemical, cell-free fluorescence (AID 449749); type: functional
T4 sequence (P9WMR3 whole entry): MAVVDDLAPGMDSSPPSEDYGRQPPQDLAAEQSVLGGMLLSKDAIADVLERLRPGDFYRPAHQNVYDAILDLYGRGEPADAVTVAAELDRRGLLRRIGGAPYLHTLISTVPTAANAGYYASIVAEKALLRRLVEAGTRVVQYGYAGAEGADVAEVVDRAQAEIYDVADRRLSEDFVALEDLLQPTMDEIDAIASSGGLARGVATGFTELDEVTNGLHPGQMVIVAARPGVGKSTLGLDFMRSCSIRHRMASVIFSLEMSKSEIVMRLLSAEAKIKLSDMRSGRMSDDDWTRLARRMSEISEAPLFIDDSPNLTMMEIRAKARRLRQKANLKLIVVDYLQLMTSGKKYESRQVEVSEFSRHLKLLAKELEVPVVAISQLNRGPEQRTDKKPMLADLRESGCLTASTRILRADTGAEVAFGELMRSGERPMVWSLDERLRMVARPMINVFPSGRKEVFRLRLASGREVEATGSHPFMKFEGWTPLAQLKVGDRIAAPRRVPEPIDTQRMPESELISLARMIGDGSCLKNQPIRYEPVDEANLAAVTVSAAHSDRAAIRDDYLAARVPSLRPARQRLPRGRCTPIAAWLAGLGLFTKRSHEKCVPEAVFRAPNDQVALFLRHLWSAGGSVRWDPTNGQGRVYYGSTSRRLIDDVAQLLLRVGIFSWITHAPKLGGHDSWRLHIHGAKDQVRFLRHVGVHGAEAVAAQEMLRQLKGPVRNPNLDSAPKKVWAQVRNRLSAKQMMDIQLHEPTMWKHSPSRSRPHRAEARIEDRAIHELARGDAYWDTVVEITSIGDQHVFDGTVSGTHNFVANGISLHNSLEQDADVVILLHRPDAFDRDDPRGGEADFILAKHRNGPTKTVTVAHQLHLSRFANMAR

BJ [10] = test: cells; type: functional, cell-based; settings: Homo sapiens
[11] = THP-1 cell cytotoxicity, dose response, cytotoxicity control for Vif-APOBEC3G degradation inhibitor project, THP-1 cells (AID 1117359); type: functional; settings: Human immunodeficiency virus 1, THP-1
[12] = target: T5, Zinc finger protein mex-5 (Caenorhabditis elegans, UniProt Q9XUB2); test: MEX-5/TCR-2 RNA interaction inhibitors, dose response, biochemical, C. elegans, fluorescence polarization (AID 1960)
T5 sequence (Q9XUB2 whole entry): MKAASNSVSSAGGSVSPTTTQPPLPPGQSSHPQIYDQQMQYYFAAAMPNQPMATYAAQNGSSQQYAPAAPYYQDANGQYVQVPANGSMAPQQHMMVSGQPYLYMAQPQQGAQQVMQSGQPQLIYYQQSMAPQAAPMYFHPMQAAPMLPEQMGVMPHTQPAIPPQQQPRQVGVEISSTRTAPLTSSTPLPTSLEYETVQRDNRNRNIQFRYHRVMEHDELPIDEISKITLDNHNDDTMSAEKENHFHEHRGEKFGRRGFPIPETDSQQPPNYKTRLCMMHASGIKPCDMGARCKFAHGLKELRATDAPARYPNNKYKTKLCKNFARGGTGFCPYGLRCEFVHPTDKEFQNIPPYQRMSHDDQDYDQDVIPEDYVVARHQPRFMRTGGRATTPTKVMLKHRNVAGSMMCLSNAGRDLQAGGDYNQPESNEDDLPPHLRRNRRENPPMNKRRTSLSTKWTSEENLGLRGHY

[13] = target: T6, RNA-binding protein pos-1 (Caenorhabditis elegans, UniProt G5EF15); test: inhibitors of POS-1/mex-3 RNA binding, dose response, biochemical, fluorescence polarization (AID 1964);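 note: purified POS-1 fused to maltose binding protein made in E. coli; potency of compounds blocking POS-1 binding to fluorescent RNA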
T6 sequence (G5EF15 whole entry): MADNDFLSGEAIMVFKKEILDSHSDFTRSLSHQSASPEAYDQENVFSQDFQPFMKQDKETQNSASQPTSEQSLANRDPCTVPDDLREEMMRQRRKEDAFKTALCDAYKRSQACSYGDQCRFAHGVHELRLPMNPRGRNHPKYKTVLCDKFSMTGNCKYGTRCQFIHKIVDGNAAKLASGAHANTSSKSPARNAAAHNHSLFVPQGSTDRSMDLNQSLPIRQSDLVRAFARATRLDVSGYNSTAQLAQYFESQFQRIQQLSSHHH

Vero = Vero cell cytotoxicity, cytotoxicity control for flavivirus capping enzyme inhibitors (AID 588742); type: functional; settings: Chlorocebus sabaeus
[14] = cytotoxicity toward DRD oncogenic fibroblasts, dose response, cell-based, non-viral oncogenic, luminescence (AID 1934); type: functional; settings: Homo sapiens
Protein RecA = target: T7, Protein RecA (Mycobacterium tuberculosis, UniProt P9WHJ3); test: Fluorescence Cell-Free Homogeneous Dose Retest to Identify Inhibitors of RecA-Intein Splicing Activity. [Related pubchem assays (depositor defined):AID2097, AID2223, AID489010, AID492950]; type: functional
T7 sequence (P9WHJ3 whole entry): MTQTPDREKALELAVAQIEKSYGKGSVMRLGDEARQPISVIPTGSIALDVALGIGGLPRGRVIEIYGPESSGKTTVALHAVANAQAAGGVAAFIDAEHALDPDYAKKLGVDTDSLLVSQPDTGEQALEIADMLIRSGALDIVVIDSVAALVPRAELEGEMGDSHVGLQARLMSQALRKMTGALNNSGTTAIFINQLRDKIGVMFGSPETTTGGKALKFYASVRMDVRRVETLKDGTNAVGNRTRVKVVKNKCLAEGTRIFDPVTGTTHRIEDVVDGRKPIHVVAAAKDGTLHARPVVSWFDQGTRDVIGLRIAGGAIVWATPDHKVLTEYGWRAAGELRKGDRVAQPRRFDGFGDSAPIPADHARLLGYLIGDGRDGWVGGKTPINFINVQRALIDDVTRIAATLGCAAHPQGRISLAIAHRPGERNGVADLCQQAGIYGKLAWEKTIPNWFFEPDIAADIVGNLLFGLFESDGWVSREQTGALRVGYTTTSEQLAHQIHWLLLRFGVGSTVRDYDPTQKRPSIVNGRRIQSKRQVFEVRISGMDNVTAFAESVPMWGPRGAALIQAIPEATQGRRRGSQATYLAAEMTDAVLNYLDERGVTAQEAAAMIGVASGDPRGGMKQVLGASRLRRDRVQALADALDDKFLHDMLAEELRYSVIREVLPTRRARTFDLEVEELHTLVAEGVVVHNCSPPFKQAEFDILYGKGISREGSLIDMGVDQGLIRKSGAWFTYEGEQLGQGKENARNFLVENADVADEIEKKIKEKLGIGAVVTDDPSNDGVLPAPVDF

Protein Tat = Protein Tat (Human immunodeficiency virus type 1 group M subtype B (isolate HXB2)(HIV-1), UniProt P04608); type: functional;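 note: tat binding to TAR RNA read out by fluorescence polarization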
Protein Tat, sequence (P04608 whole entry): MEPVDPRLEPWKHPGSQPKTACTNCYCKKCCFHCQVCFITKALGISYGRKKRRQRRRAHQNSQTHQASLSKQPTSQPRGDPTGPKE

[15] = inhibitors of triacylglycerol buildup in H9c2 cells, dose response, cell-based, H9c2 rat cardiomyoblasts, Nile Red fluorescence, primary readout (AID 743161); type: functional

O=C(NC(=S)N1CCN(c2c(Cl)cccc2[N+](=O)[O-])CC1)c1cccs1
EC50 [1]: > 195 µM (not active)
EC50 [2]: 4.51 µM (active)
EC50 (Streptokinase A): > 150 µM (not active)
EC50 (Streptococcus): 10.2 µM (active)
CC50 [3]: > 40 µM (active)

COc1cc(O)oc1/C=N/c1ccccc1
IC50 [4]: > 100 µM (active)

O=C(CCSCCC(=O)NCc1ccco1)NCc1ccco1
IC50 [5]: 4.15 µM (active)

O=C1C=C(Nc2cccc3cccnc23)c2ccccc2C1=O
EC50 (BJ [6]): 1.57 µM (inconclusive)
IC50 [7]: > 100 µM (active)
EC50 (BJ [8]): 6.37 µM (inconclusive)
IC50 (Genome polyprotein): 50.4 µM (active)
AC50 [9]: > 380 µM (inactive)
EC50 (BJ [10]): 3.05 µM (active)
CC50 [11]: 0.34 µM (active)
EC50 [12]: 28.7 µM (active)
EC50 [13]: 47.6 µM (active)
CC50 (Vero): 4.45 µM (active)
EC50 [14]: 2.77 µM (inconclusive)
EC50 (Protein RecA): 2.89 µM (active)
IC50 (Protein Tat): > 100 µM (active)

COCCN1Cc2cccc(C(=O)NCc3cccc(N(C)C)c3)c2C1=O
IC50 [15]: > 50 µM (active)
